Experimental data reported in publication PMC12656219, “Cytotoxic Effects Induced by Combined Exposure of the Patulin, Ochratoxin A, and Acetamiprid to HK-2 and SK-N-SH Cell Lines” (Toxins, 2025).
Like-named read-outs stand apart in the source and are kept apart here.

Assays:
[1] = test system: HK-2 cells; assay: CCK-8 cell viability, individual and combined exposure (CI/DRI analysis), HK-2 cells; assay type: cell-based, human; conditions: for DRI (dose reduction index): in PAT+OTA+ACM group, from low to high doses; for IC50: Homo sapiens
Experimental: (§1) The cytotoxicity of individual contaminations was evaluated using dose–response curves, from which half-maximal inhibitory concentration (IC50) values were calculated. Contaminant concentration and exposure duration were identified as the primary determinants influencing cytotoxic responses. Concentrations employed in the binary and ternary combination assays were selected based on IC50 values obtained from individual treatments in HK-2 and SK-N-SH cell lines.
(§2) Due to the high binding affinity of OTA for serum proteins, all treatments were conducted in medium supplemented with 2% FBS to minimize potential interference with toxicological outcomes. For cytotoxicity evaluation, 100 μL of cell suspension (8 × 10^3 cells/well) was seeded into 96-well plates. Upon reaching approximately 80% confluence, the culture medium was replaced with fresh medium containing varying concentrations of PAT, OTA, ACM, or their combinations. Cells were then incubated for 24 or 48 h, after which cell viability was assessed. Concentrations used for individual mycotoxin exposures are provided in Table S1, while those for binary and ternary mixture exposures are listed in Table S2.
(§3) Cells were diluted to a density of 8 × 10^3 cells/well and seeded in 96-well culture plates. After 24 h incubation, all cells were exposed to various concentrations of individual or combined contaminants and allowed to grow in an incubator for 24 h and 48 h, respectively. The cytotoxicity of the two different cell lines was determined using a CCK-8 kit according to the manufacturer’s instructions. After treatment, 10 μL CCK-8 solution was added to each well (10% culture volume) and incubated for 2 h at 37 °C. Absorbance values (A) were measured at 450 nm using a microplate reader (Thermo Fisher Scientific, Waltham, MA, USA). All treatments were performed in six replicates, and cell activity was calculated as follows: Cell Viability(%)=Aexperiment −A(blank)/Acontrol−A(blank)× 100
(§4) The dose–effect relationship for PAT, OTA, and ACM was calculated using the […] proposed by Chou and Talalay. fa/fu=D/Dm^m
(§5) D was the concentration of the contamination, fa was the cell proliferation inhibition rate, and fu was the unaffected fraction (fu = 1 − fa). Dm was the median effect dose for the 50% inhibition of cell proliferation. m was the coefficient indicating the shape of the dose–effect relationship (m = 1, m > 1, and m < 1 each indicated hyperbolic, sigmoidal, and flat sigmoidal dose–effect curves). The method employed the Dm parameter to measure the cytotoxicity of individual contamination.
(§6) When the composition of contaminations extended to binary or ternary, the interactions of multiple contaminations were assayed by means of combination index model (CI) based on the median effect principle, as the CI values calculated according to a generic formula: nCIx=∑j=1n(D)j/(Dx)j
(§7) ^n(CI)x referred to n kind of contaminant combined cell inhibition rate for x% of composite index, (D)j was referred to the joint action of n type of toxin to a total dose of x% cell inhibition rate, and (Dx)j referred to the combination of each contamination effect itself when dose of x% cell inhibition rate. Overall, the types of combined effects represented by CI = 0.9–1.1, CI < 0.9, and CI > 1.1 were additive, synergistic, and antagonistic, respectively.
(§8) In addition, the impact of contaminants on the combined effects was assessed using the dose reduction index (DRI). DRI indicated a multiplicative reduction in the dose required to produce the same effect when the contaminant was mixed compared to when used alone. […] The DRI was calculated as follows: n(CI)x=∑j=1n(D)j/(Dm)j=∑j=1n1/(DRI)j or (DRI)j=(D)j/(Dm)j
(§9) The IC50 values of the three different contaminations exposed to the two cell lines was calculated by GraphPad Prism 9.4.0 software. […]

[2] = test system: Caco-2 cells; conditions: cited from earlier work
[3] = test system: SK-N-SH cells; assay: CCK-8 cell viability, individual and combined exposure (CI/DRI analysis), SK-N-SH cells; assay type: cell-based, human; conditions: for IC50: Homo sapiens
Experimental: as §1, §2, §3, §4, §5, §6, §7, §8, §9

[4] = test system: SK-N-SH cells; conditions: 24 h; cited from earlier work
[5] = HK-2 cells, 24 h, CCK-8, mean ± SEM, n = 6, read-out: IC50
[6] = HK-2 cells, 48 h, CCK-8, mean ± SEM, n = 6, read-out: IC50
[7] = SK-N-SH cells, 24 h, CCK-8, mean ± SEM, n = 6, read-out: IC50
[8] = SK-N-SH cells, 48 h, CCK-8, mean ± SEM, n = 6, read-out: IC50
[9] = SK-N-SH, 24 h, in PAT+OTA group

Row | SMILES | DRI (dose reduction index) ([1]; HK-2, 24 h) | IC50 [1, 5] [µg/mL] | IC50 [1, 6] [µg/mL] | IC50 [2] [µM] | IC50 [3, 7] [µg/mL] | IC50 [3, 8] [µg/mL] | DRI (dose reduction index) [3, 9] | IC50 ([1]; HK-2, 24 h) [µg/mL] | IC50 ([1]; HK-2, 48 h) [µg/mL] | IC50 ([3]; SK-N-SH, 24 h) [µg/mL] | IC50 ([3]; SK-N-SH, 48 h) [µg/mL] | DRI (dose reduction index) ([3]; SK-N-SH, 48 h, in OTA+ACM group, Fa > 0.5) | IC50 [4] [µM]
1 | O=C1C=C2C(=CCOC2O)O1 (centres unmarked) [PAT, Patulin] | greater than 1 | 0.5 ± 0.005 | 0.4 ± 0.006 | 16 | 0.5 ± 0.024 | 0.25 ± 0.001 | greater than 1 |  |  |  |  |  | 
2 | C[C@@H]1Cc2c(Cl)cc(C(=O)N[C@@H](Cc3ccccc3)C(=O)O)c(O)c2C(=O)O1 [OTA, ochratoxin A] |  |  |  | 145 |  |  | greater than 1 | 2.5 ± 0.049 | 1 ± 0.021 | 7 ± 0.357 | 4.5 ± 0.415 | greater than 1 | 
3 | C/C(=N\C#N)N(C)Cc1ccc(Cl)nc1 [ACM, acetamiprid] | greater than 1 | 1160 ± 38.7 | 900.2 ± 4.1 |  | 700 ± 34.4 | 550 ± 31.6 |  |  |  |  |  |  | ~10600
